Data on 28 molecules can be found in patent US6455587B1 (priority 2000, dated 2002).

In the first assay the target is T1, recombinant HIV-1 protease (Human immunodeficiency virus type 1 group M subtype B, UniProt P04585).
T1 construct: recombinant HIV-1 protease (final concentration 2.18 nM) purchased from Bachem Bioscience; purchased Bachem Bioscience
The assay can be described thus: Enzymatic fluorometric (FRET) assay for determining the inhibition constant (Ki) against HIV protease. The assay is classed as biochemical. Conditions: Ki (nM). The text has this:
An Enzymatic assay for determining the inhibition constant (Ki) of synthetic compounds targeting the HIV protease may be carried out as follows: This is a fluorometric assay based on the cleavage by protease of a substrate carrying a donor group (EDANS) and an acceptor group (DABCYL) on each side of the cleavage site, interacting together through fluorescence resonance energy transfer (FRET). Cleavage of the substrate by protease stops energy exchange between the two groups, resulting in a time-dependent increase in fluorescence intensity that is linearly related to the extent of substrate hydrolysis.
The enzymatic assay is done at 31° C. in white 96-well fluorescence microplates, in a total volume of 200 μL per well. The apparatus used for analysis is a FL600 fluorescence microplate reader (Biotek Instruments). […] Excitation of the fluorophore is done at 340 nm and emission at 485 nm is recorded continuously during the reaction, allowing determination of the enzyme's initial velocity (v0). At the end of the 4 min incubation, the potential inhibitor at a defined concentration in a volume of 4 μL is added to the reaction, and fluorescence readings are taken for another 4 min, allowing determination of enzyme velocity (vi) in the presence of the inhibitory compound. Several concentrations of the putative inhibitors are tested in the assay. After calculation of v0 and vi, the inhibition constant (Ki) of the compound is determined using the equation of Henderson: [formula]
and [I]=inhibitor concentration, [S]=substrate concentration,
Km=Michaelis-Menten constant, Kiapp=apparent Ki
Graphs are traced and the Ki determined using GraphPad Prism software v. 3.0.
With `Cc1ccc(S(=O)(=O)N(CC(C)C)[C@@H](CCCCNC(=O)OCC2c3ccccc3-c3ccccc32)C(=O)O)cc1` [Compound 67, Nα-Isobutyl-Nα-(4-methylbenzenesulfonyl)-Nε-(9-fluorenylmethoxycarbonyl)-L-lysine], the Ki (commonly a dissociation constant, usually derived from enzyme kinetics or from competition with a known ligand) came out at 4.3 nM.

Still in this assay, the particulars now being: Ki (nM), fluorometric FRET assay, recombinant HIV-1 protease, pH 4.7, 31° C.
For `CC(C)CN([C@@H](CCCCNC(=O)C=Cc1ccccc1[N+](=O)[O-])C(=O)O)S(=O)(=O)c1ccc([N+](=O)[O-])cc1` [Compound 109, Nα-Isobutyl-Nα-(4-nitrobenzenesulfonyl)-Nε-(2-nitrocinnamoyl)-L-lysine], the Ki is greater than 300 nM.

The same assay, now with this note: fluorometric FRET assay, 31° C., pH 4.7, recombinant HIV-1 protease 2.18 nM, substrate 10 μM; read-out: Ki.
`COc1ccc(CCC(=O)NCCCC[C@@H](C(=O)O)N(CC(C)C)S(=O)(=O)c2ccc(N)cc2)cc1OC` [Compound 200, Nα-Isobutyl-Nα-(4-aminobenzenesulfonyl)-Nε-(3,4-dimethoxydihydrocinnamoyl)-L-lysine]: the inhibition constant Ki is 132 nM.
Same read-out and setting: the value for `COc1ccc(OC)c(CCC(=O)NCCCC[C@@H](C(=O)O)N(CC(C)C)S(=O)(=O)c2ccc(N)cc2)c1` [Compound 197, Nα-Isobutyl-Nα-(4-aminobenzenesulfonyl)-Nε-(2,5-dimethoxydihydrocinnamoyl)-L-lysine] was 20.7 nM; that for `COc1cccc(CCC(=O)NCCCC[C@@H](C(=O)O)N(CC(C)C)S(=O)(=O)c2ccc(C)cc2)c1OC` [Compound 201, Nα-Isobutyl-Nα-(4-methylbenzenesulfonyl)-Nε-(2,3-dimethoxydihydrocinnamoyl)-L-lysine] was 15 nM.
On the same count and under the same terms, the value for `Cc1ccc(S(=O)(=O)N(CC(C)C)C(CCCCNC(CCc2ccccc2)=NC#N)C(=O)O)cc1` (racemic) [Compound 204, Nα-Isobutyl-Nα-(4-methylbenzenesuIfonyl)-Nε-(dihydrothiocinnamoyl-N-cyanoamidine)-DL-lysine] was 34 nM; that for “Nα-Isobutyl-Nα-(4-methylbenzenesulfonyl)-Nε-phenylthioacetyl-L-lysine [Compound 202]” was 18 nM.

The assay is the same for the next values; noted with them: fluorometric FRET assay, recombinant HIV-1 protease, pH 4.7, 31° C.; read-out: Ki.
For `O=C(O)[C@H](CCCCNS(=O)(=O)c1ccc(Br)cc1)NS(=O)(=O)c1ccc(Br)cc1` [Compound 17, Nα,Nε-di-(4-Bromobenzenesulfonyl)-L-lysine], the inhibition constant (Ki) came out at 7700 nM.
`O=C(N[C@@H](CCCCNS(=O)(=O)c1cccc(C(F)(F)F)c1)C(=O)O)OCC1c2ccccc2-c2ccccc21` [Compound 34, Nε-(3-Trifluoromethylbenzenesulfonyl)-Nα-(9-fluorenylmethoxycarbonyl)-L-lysine]: the Ki came out at 22000 nM.
Consider `O=C(N[C@@H](CNS(=O)(=O)c1ccc(Br)cc1)C(=O)O)OCC1c2ccccc2-c2ccccc21` [Compound 18, (S)-2-(9-Fluorenylmethoxycarbonylamino)-3-(4-bromobenzenesulfonylamino)-propanoic Acid], for which the Ki worked out at 75000 nM.
Regarding `O=C(NCCCC[C@H](NS(=O)(=O)c1ccc(Cl)cc1)C(=O)O)OCC1c2ccccc2-c2ccccc21` [Compound 72, Nα-(4-Chlorobenzenesulfonyl)-Nε-(9-fluorenylmethoxycarbonyl)-L-lysine], the Ki turned out to be 2380 nM.
With `CC(C)CN(CCCC[C@H](NC(=O)OCC1c2ccccc2-c2ccccc21)C(=O)O)S(=O)(=O)c1ccc(Br)cc1` [Compound 21, Nα-(9-Fluorenylmethoxycarbonyl)-Nε-isobutyl-Nε-(4-bromobenzenesulfonyl)-L-lysine], the Ki was 2000 nM.
As for `O=C(Cc1c[nH]c2ccccc12)N[C@@H](CCCCNS(=O)(=O)c1ccc(Br)cc1)C(=O)O` [Compound 29, Nα-(3-Indoleacetyl)-Nε-(4-bromobenzenesulfonyl)-L-lysine], the Ki came to 10500 nM.
Turning to “Nα-Isobutyl-Nα-(4-nitrobenzenesulfonyl)-Nε-phenylthioacetyl-L-lysine [Compound 154]”, the inhibition constant (Ki) turned out to be 10.2 nM.
Same read-out and setting: the value for `COc1ccc(S(=O)(=O)N[C@@H](CCCCNC(=O)OCC2c3ccccc3-c3ccccc32)C(=O)O)cc1` [Compound 104, Nα-(4-Methoxylbenzenesulfonyl)-Nε-(9-fluorenylmethoxycarbonyl)-L-lysine] was 3160 nM.
On the same count and under the same terms, then `CC(C)CN([C@@H](CCCCNC(=O)COc1ccccc1)C(=O)O)S(=O)(=O)c1ccc([N+](=O)[O-])cc1` [Compound 160, Nα-Isobutyl-Nα-(4-nitrobenzenesulfonyl)-Nε-phenoxyacetyl-L-lysine], with 24.5 nM; and `O=C(N[C@@H](CCCCNS(=O)(=O)Cc1ccccc1)C(=O)O)OCC1c2ccccc2-c2ccccc21` [Compound 33, Nε-Phenylmethylsulfonyl-Nα-(9-fluorenylmethoxycarbonyl)-L-lysine], with 20000 nM.
Regarding `O=C(N[C@@H](CCCCNS(=O)(=O)c1cc(Cl)ccc1Cl)C(=O)O)OCC1c2ccccc2-c2ccccc21` [Compound 54, Nε-(2,5-Dichlorobenzenesulfonyl)-Nα-(9-fluorenylmethoxycarbonyl)-L-lysine], the inhibitory constant (Ki) was greater than 6250 nM.
The same measure, in the same setting: the value for `O=C(NCCC[C@H](NC(=O)OCC1c2ccccc2-c2ccccc21)C(=O)O)OCC1c2ccccc2-c2ccccc21` [Compound 73, Nα,Nδ-di-(9-Fluorenylmethoxycarbonyl)-L-ornithine] was 1300 nM; that for `Cc1ccc(S(=O)(=O)N(CC(C)C)C(CCCCNC(CCc2ccccc2)=NC#N)C(=O)O)cc1` (racemic) [Compound 204, Nα-Isobutyl-Nα-(4-methylbenzenesuIfonyl)-Nε-(dihydrothiocinnamoyl-N-cyanoamidine)-DL-lysine] was greater than 200000 nM.
Still for that read-out and setting: then `O=C(NCCCC[C@H](NS(=O)(=O)c1ccc(Br)cc1)C(=O)O)OCC1c2ccccc2-c2ccccc21` [Compound 66, Nα-(4-Bromobenzenesulfonyl)-Nε-(9-fluorenylmethoxycarbonyl)-L-lysine], with 1900 nM.
Still for that read-out and setting: then `COc1ccc(C=CC(=O)NCCCC[C@@H](C(=O)O)N(CC(C)C)S(=O)(=O)c2ccc([N+](=O)[O-])cc2)cc1` [Compound 113, Nα-Isobutyl-Nα-(4-nitrobenzenesulfonyl)-Nε-(4-methoxycinnamoyl)-L-lysine], with greater than 300 nM; and `CC(C)CN([C@@H](CCCCNC(=O)OCc1ccccc1)C(=O)OCc1ccccc1)S(=O)(=O)c1ccc([N+](=O)[O-])cc1` [Compound 78, Nα-Isobutyl-Nα-(4-nitrobenzenesulfonyl)-Nε-benzyloxycarbonyl-L-lysine Benzyl Ester], with greater than 1250 nM; and “Nε-(2,4,6-Triisopropylbenzenesulfonyl)-Nα-(9-fluorenylmethoxycarbonyl)-L-lysine [Compound 25]”, with 15.4 nM.
For `Nc1ccc(S(=O)(=O)N[C@@H](CCCCNC(=O)OCC2c3ccccc3-c3ccccc32)C(=O)O)cc1` [Compound 106, Nα-(4-Aminobenzenesulfonyl)-Nε-(9-fluorenylmethoxycarbonyl)-L-lysine], the inhibitory constant (Ki) worked out at 4490 nM.
On to “Nα-(4-Bromobenzenesulfonyl)-Nε-(9-fluorenylmethoxycarbonyl)-L-lysine [Compound 66]”, for which the inhibitory constant (Ki) is greater than 6500 nM.
With “Nα-Isobutyl-Nα-(4-methylbenzenesulfonyl)-Nε-phenylthioacetyl-L-lysine [Compound 202]”, the inhibitory constant (Ki) is 8400 nM.
Turning to “Nα-(4-Chlorobenzenesulfonyl)-Nδ-(9-fluorenylmethoxycarbonyl)-L-ornithine [Compound 74]”, the Ki is greater than 25000 nM.
As for `O=C(NCCCC[C@H](NS(=O)(=O)c1cccc2ccccc12)C(=O)O)OCC1c2ccccc2-c2ccccc21` [Compound 102, Nα-(1-Naphthalenesulfonyl)-Nε-(9-fluorenylmethoxycarbonyl)-L-lysine], the Ki was 2320 nM.
The same measure, in the same setting: the value for `CC(C)CN([C@@H](CCCCNC(=O)CCc1ccccc1)C(=O)O)S(=O)(=O)c1ccc(N)cc1` [Compound 158, Nα-Isobutyl-Nα-(4-aminobenzenesulfonyl)-Nε-dihydrocinnamoyl-L-lysine] was greater than 300 nM.
